Reference: patent US20110183978A1, “Phenylpyri(mi)dinylazoles” (Bayer CropScience AG, priority 2009, published 2011)
Read-outs that look alike come from different tables or passages of the source.

What was measured:
Sphaerotheca fuliginea [1] = test: Example D: in vivo test on Sphaerotheca fuliginea (powdery mildew on cucumber); details: Podosphaera fuliginea, 288 h, cucumber plants sprayed 24 hours before inoculation, scored after 12 days, read-out: % Wirkungsgrad
Procedure: In Vivo Test on Sphaerotheca Fuliginea (Powdery Mildew on Cucumber) An aqueous suspension of the active substance was prepared by homogenization of a mixture of acetone/Tween/dimethyl sulphoxide and subsequent dilution with water to the desired concentration. Cucumber plants (variety: Vert petit de Paris) are sown in cultivation dishes on a peat-pozzolanic earth substrate (50/50) at 20/23° C. and at the cotyledon stage Z10 sprayed with the aqueous suspension described above. As a control, plants are sprayed with an aqueous solution with no active substance. After 24 hours the plants are inoculated by spraying with an aqueous suspension of Sphaerotheca fuliginea spores (100,000 spores per ml). The spores are derived from a contaminated plant. The inoculated cucumber plants are incubated at ca. 20/25° C. at a relative atmospheric humidity of 60/70%. After 12 days they are scored in comparison with the control plants.

Fusarium proliferatum = test: Example I: production of fumonisin FB1 by Fusarium proliferatum (microtitre plates); type: cell-based; details: 120 h
Peronospora parasitica = test: Example A: in vivo test on Peronospora parasitica (downy mildew on white cabbage); details: Hyaloperonospora parasitica, 120 h, cabbage plants sprayed 24 hours before inoculation, scored after 5 days, read-out: % Wirkungsgrad
Procedure: In Vivo Test on Peronospora Parasitica (Downy Mildew on White Cabbage) An aqueous suspension of the active substance was prepared by homogenization of a mixture of acetone/Tween (dispersant)/dimethyl sulphoxide (DMSO) and subsequent dilution with water to the desired concentration. Cabbage plants (variety: Eminence) are sown in cultivation dishes on a peat-pozzolanic earth substrate (50/50) at 18-20° C. and sprayed at the cotyledon stage with the aqueous suspension described above. As a control, plants are sprayed with an aqueous solution with no active substance. After 24 hours, the plants are inoculated by spraying with an aqueous suspension of Peronospora parasitica spores (50,000 spores per ml). The spores are derived from infected plants. The inoculated cabbage plants are incubated for 5 days at ca. 20° C. in a moist atmosphere. After 5 days, they are scored in comparison with the control plants.

Plasmopara viticola = test: Example N: in vivo test on Plasmopara viticola (downy mildew, vine/protective); details: 144 h, vine, protective, assessment 6 days after inoculation, read-out: % Wirkungsgrad
Procedure: (§1) Emulsifier: 1 part by weight alkylaryl polyglycol ethers For the preparation of a suitable active substance preparation, 1 part by weight of active substance is mixed with the stated quantities of solvent and emulsifier and the concentrate is diluted to the desired concentration with water. For the testing for protective activity, young plants are sprayed with the active substance preparation at the stated application dosage. […] The plants are then moistened and placed in an incubation cabin for 1 day. 6 days after the inoculation, the assessment takes place.

Sphaerotheca fuliginea [2] = test: Example L: in vivo test on Sphaerotheca fuliginea (powdery mildew on cucumber/protective); details: Podosphaera fuliginea, 168 h, cucumber, protective, assessment 7 days after inoculation, read-out: % Wirkungsgrad
How it was run: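 Young cucumber plants sprayed at stated dosage with compound in DMF/alkylaryl polyglycol ether emulsifier diluted in water; inoculated with S. fuliginea spores one day later. Kept in greenhouse at 70% relative humidity, 23° C; protective activity assessed 7 days after inoculation.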

Botrytis cinerea = test: Example P: in vivo test on Botrytis cinerea (gray mould on bean/protective); details: 48 h, bean, protective, 250 ppm active substance, assessed 2 days after inoculation, read-out: % Wirkungsgrad (activity level)
Procedure: as §1, with “dosage. After drying of the spray coating, 2 small pieces of agar with Botrytis cinerea growing on them are laid on every leaf.” for “dosage.”, “2” for “The plants are then moistened and placed in an incubation cabin for 1 day. 6”, “size of the infection blotches on the leaves is assessed.” for “assessment takes place.”

Venturia inaequalis = test: Example O: in vivo test on Venturia inaequalis (apple scab/protective); details: 240 h, protective, assessment 10 days after inoculation, read-out: % Wirkungsgrad
Procedure: Emulsifier: 1 part by weight alkylaryl polyglycol ethers For the preparation of a suitable active substance preparation, 1 part by weight of active substance is mixed with the stated quantities of solvent and emulsifier and the concentrate is diluted to the desired concentration with water. For the testing for protective activity, young plants are sprayed with the active substance preparation at the stated application dosage. […] 10 days after the inoculation, the assessment takes place.

Fusarium graminearum = test: microbe, parasite or virus in culture; type: cell-based
Alternaria solani = test: Example M: in vivo test on Alternaria solani (leaf blotch disease/tomato/protective); details: 168 h, tomato, protective, 500 ppm active substance, assessed 7 days after inoculation, read-out: % Wirkungsgrad (activity level)
How it was run: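 Alternaria solani infection on tomato scored 7 days post-inoculation. Before inoculation, young plants received a protective spray at the stated application dose; formulation was compound mixed with N,N-dimethylformamide and emulsifier, water-diluted.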

[3] = Fusarium proliferatum growth, OD 620, 5 days, read-out: % Inhibition des Pilzwachstums bei 50 μM
[4] = Fusarium proliferatum, 5 days at 20° C., HPLC-MS/MS, read-out: % Inhibition der FB1 produktion bei 50 μM
[5] = LogPA (logP of the stated pure compound or, in a mixture, of the main isomer, 1-substituted 3-aryl-1H-pyrazole)
[6] = 72 h, read-out: % Inhibition des Pilzwachstums bei 50 μM
[7] = 168 h, read-out: % Inhibition der DON/AcDON produktion bei 50 μM

SMILES	pest or weed control at 500 ppm (Sphaerotheca fuliginea [1])	inhibition at 50 µM (Fusarium proliferatum; [3])	inhibition at 50 µM (Fusarium proliferatum; [4])	pest or weed control at 500 ppm (Peronospora parasitica)	chromatographic logP (physchem; [5])	pest or weed control at 100 ppm (Plasmopara viticola)	pest or weed control at 500 ppm (Sphaerotheca fuliginea [2])	pest or weed control at 250 ppm (Botrytis cinerea)	pest or weed control at 100 ppm (Venturia inaequalis)	inhibition at 50 µM (Fusarium graminearum; [6])	inhibition at 50 µM (Fusarium graminearum; [7])	pest or weed control at 500 ppm (Alternaria solani)	chromatographic logP (physchem; LogPA)
FC1(F)Oc2cccc(-c3c(-c4ccncc4)cnn3C3CCCCO3)c2O1 (stereo not shown) [Compound 33]	71%	99%	99%	93%	1.64	–	–	–	–	–	–	–	–
CC(C)CC(=O)Nc1cc(-c2cn(C(C)C)nc2-c2ccc(F)cc2)ccn1 [Compound 160]	–	–	–	–	2.82	79%	100%	100%	94%	100%	100%	95%	–
COC(=O)C(C)n1cc(-c2ccncc2)c(-c2ccc(F)cc2)n1 (stereo not shown) [Compound 107]	91%	–	–	–	1.2	–	–	–	–	–	–	–	–
CCC(C)C(=O)Nc1cc(-c2cn(CC(F)F)nc2-c2ccc(F)cc2)ccn1 (stereo not shown) [Compound 239]	–	–	–	–	–	88%	95%	–	98%	–	–	100%	2.62
CC(C)(C)Cn1cc(-c2ccncc2)c(-c2c(F)cccc2F)n1 [Compound 11]	93%	–	–	–	1.84	–	73%	–	–	–	–	80%	–
Clc1cccc(-c2nn(C3CCCCO3)cc2-c2ccncc2)c1 (stereo not shown) [Compound 28]	–	–	–	97%	1.55	–	–	–	–	–	–	–	–
CC(C)n1cc(-c2ccnc(N)c2)c(-c2ccc(F)cc2)n1 [Compound 46]	81%	–	–	94%	1.18	–	–	–	–	–	–	–	–
O=C(Nc1cc(-c2cn(CC(F)F)nc2-c2ccc(F)cc2)ccn1)c1ccccc1 [Compound 237]	–	–	–	–	–	84%	88%	100%	95%	–	–	100%	2.9
Clc1cccc(-c2nn(C3CCCCO3)cc2-c2ccnc3[nH]ccc23)c1 (stereo not shown) [Compound 32]	–	–	–	79%	2.46	–	–	–	–	–	–	–	–
COCCOCCn1cc(-c2ccncc2)c(-c2ccc(F)cc2)n1 [Compound 134]	85%	–	–	94%	1.04	–	–	–	–	–	–	100%	–
Fc1ccc(-c2nn(C3CCCCO3)cc2-c2ccncc2)cc1 (stereo not shown) [Compound 9]	75%	40%	96%	–	1.29	–	90%	–	–	–	–	89%	–
O=C(Nc1cc(-c2cn(CC(F)F)nc2-c2ccc(F)cc2)ccn1)c1cccs1 [Compound 236]	–	–	–	–	–	76%	86%	100%	94%	–	–	94%	2.82
COCC(=O)Nc1cc(-c2cn(CCCl)nc2-c2ccc(F)cc2)ccn1 [Compound 220]	–	99%	100%	–	–	–	97%	100%	96%	100%	99%	95%	2.36
CC(C)(C)C(=O)Nc1cc(-c2cn(C3CCCCO3)nc2-c2ccc(F)cc2)ccn1 (stereo not shown) [Compound 41]	98%	56%	100%	72%	3.19	–	–	–	–	–	–	–	–
CC(C)C(=O)Nc1cc(-c2cn(CCCl)nc2-c2ccc(F)cc2)ccn1 [Compound 222]	–	96%	100%	–	–	–	100%	85%	95%	99%	82%	90%	2.33
CC(C)n1cc(-c2ccnc(NC(=O)C3CCC3)c2)c(-c2ccc(F)cc2)n1 [Compound 156]	–	93%	100%	–	2.57	–	94%	98%	91%	99%	81%	94%	–
COCC(=O)Nc1cc(-c2cn(C3CCCCO3)nc2-c2ccc(F)cc2)ccn1 (stereo not shown) [Compound 23]	–	73%	100%	100%	2.64	–	–	–	–	–	–	–	–
CC(C)=CCn1ncc(-c2ccncc2)c1-c1c(F)cccc1F [Compound 22]	71%	–	–	97%	1.72	–	–	–	–	–	–	–	–
Fc1ccc(-c2nn(Cc3cccc(Oc4ccccc4)c3)cc2-c2ccncc2)cc1 [Compound 138]	77%	–	–	–	2.36	–	–	–	–	–	–	–	–
Fc1ccc(-c2nn(Cc3cnc(Cl)s3)cc2-c2ccncc2)cc1 [Compound 110]	79%	–	–	–	1.54	–	–	–	–	–	–	–	–
Cc1cc(F)ccc1-c1c(-c2ccncc2)cnn1C1CCCCO1 (stereo not shown) [Compound 37]	78%	–	–	–	1.4	–	–	–	–	13%	80%	–	–
